# From paper PMC12015759, “A humanized Gs-coupled DREADD for circuit and behavior modulation” (Frontiers in Cellular Neuroscience, 2025)
# Legend:
# PD mice [1] = test: Rotarod test in 6-OHDA PD mice with bilateral AAV8R12-G88P7-hM3Ds-2A-EYFP; type: in vivo, mouse; settings: CNO treatment
# Experimental: (§1) Animals were anesthetized via intraperitoneal injection of pentobarbital sodium (Sigma) and placed into a stereotactic frame (RWD Instruments). An incision was made to expose the skull and locate the site above the SNr (from bregma: AP –3.4 mm, ML 1.3 mm, DV –4.8 mm). A hole in the skull was drilled above the SNr using an electrodrill (RWD Instruments). The AAV8R12-G88P7-hM3Ds-2A-EYFP vector (200 nL volume) was injected using a 10 μL 33-Gauge Hamilton syringe at a rate of 20 nL/min. The syringe was withdrawn 10 min after finishing injection. Behavioral experiments are performed at least 3 weeks after virus injection.
# (§2) A PD mouse model was generated using 6-OHDA. Desipramine (Sigma) was administrated (25 mg/kg) via intraperitoneal injection 30 min before a 6-OHDA injection. The stereotactic injection procedure was identical to the AAV injection described above. A volume of 800 nL 6-OHDA (5 mg/mL) was injected into each side of striatum (from bregma: AP 0.5 mm, ML ±1.5 mm, DV –3.2 mm) at a rate of 100 nL/min. One week after 6-OHDA lesions were generated, AAV injections were administered, and behavioral tests were conducted 3 weeks after AAV injections.
# After 3 days of habituation to the environment and operator, the mice were placed on a suspended rod apparatus (Xinruan) and trained at speeds of 10, 20, 30 and 40 rpm/min for 2 days. […]
# hM3Ds [2] = biological target: T1, hM3Ds (Homo sapiens, UniProt P20309, A178S/A239G/A490L/DEL258-409/DEL413-482/I254V/INS485[…]/K179L/K183A/K256R/K487Q/L174F/L483Q/R172S/R177Q/R180L/T175R/T182R/Y149C/Y255F); test: Ca2+ imaging (GCaMP6s) in hM3Ds-transfected HEK293T cells; type: cell-based; set-up: hM3Ds was subcloned into pAAV-CMV-EYFP to replace EYFP; expressed in transfected cells; host or cells: HEK293T; settings: CNO 10 μM, 10 min
# T1 sequence (P20309 with tags, fused parts or gaps Y149C/R172S/L174F/T175R/R177Q/A178S/K179L/R180L/T182R/K183A/A239G/I254V/Y255F/K256R/DEL258-409/DEL413-482/L483Q/INS485[…]/K487Q/A490L): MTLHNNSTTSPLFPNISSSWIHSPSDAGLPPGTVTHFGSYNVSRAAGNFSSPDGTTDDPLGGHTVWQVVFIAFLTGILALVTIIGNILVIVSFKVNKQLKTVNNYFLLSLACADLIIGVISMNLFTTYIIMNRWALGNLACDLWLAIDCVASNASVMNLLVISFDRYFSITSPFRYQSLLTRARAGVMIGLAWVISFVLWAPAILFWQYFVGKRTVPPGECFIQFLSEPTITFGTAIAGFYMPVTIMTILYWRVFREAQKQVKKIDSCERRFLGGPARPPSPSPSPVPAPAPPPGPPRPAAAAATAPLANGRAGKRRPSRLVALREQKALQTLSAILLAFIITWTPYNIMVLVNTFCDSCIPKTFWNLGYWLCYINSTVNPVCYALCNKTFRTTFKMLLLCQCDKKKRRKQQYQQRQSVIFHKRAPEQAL
# Experimental: As for the Ca^2+ imaging assay, HEK293T cells (ATCC) were seeded in 24-well plate with DMEM containing 10% fetal bovine serum. Upon reaching ~80% confluency, cells were cotransfected with pAAV-CAG-GCaMP6s (0.1 μg), and pAAV-CMV-hM3Ds or pAAV-CMV-hM3Dq (0.1 μg).
# 48 h after transfection, the medium in each well was replaced with 400 μL CNO (10 μM) solution, or with 400 μL vehicle (medium only). […] Cell fluorescence were imaged under microscopy and quantified using ImageJ.
# PD mice [3] = test: Open field test in 6-OHDA PD mice with bilateral AAV8R12-G88P7-hM3Ds-2A-EYFP; type: in vivo, mouse; settings: CNO 0.3 mg/kg
# Experimental: as §1
# as §2, with “One week after 6-OHDA lesions were generated, AAV injections were administered, and behavioral tests were conducted 3 weeks after AAV injections.” left out
# Mice were tested in an open field box arena with length, width and height of 50 × 50 × 50 cm. […] The animals were placed into the test box 30 min after injection and video was recorded for 10 min. The number of rotations, distance traveled, and time spent immobile were then quantified using Anymaze software and the video recordings.
# hM3Ds-M6 (K407R) = hM3Ds-M6 (K407R) (Homo sapiens, UniProt P20309, A178S/A239G/A490L/DEL258-409/DEL413-482/I254V/INS485[…]/K179L/K183A/K256R/K487Q/K567R/L174F/L483Q/R172S/R177Q/R180L/T175R/T182R/Y149C/Y255F); settings: CNO at 10 μM, compared to hM3Ds
# Experimental: (§3) As for the cAMP assay, HEK293T cells (ATCC) were seeded in 6-well plate with DMEM containing 10% fetal bovine serum. Upon reaching ~80% confluency, cells were transfected with DREADDs plasmids (30 ng), pCRE-Luc (GeneBank accession: AF053461.1, 600 ng) and pRL-SV40 (GeneBank accession: AF025845.2, 150 ng). The following day, cells were redistributed from 6-well plates to white opaque 96-well plates pre-coated with poly-L-lysine (Solarbio).
# (§4) The plates were then placed back in the cell incubator for 6 h. The cAMP level was detected using a Dual Glo Luciferase Reporter Gene Assay Kit (YEASEN) following the manufacturer’s protocol. The data of each well was presented as the ratio of firefly luciferase luminescence to renilla luciferase luminescence.
# hM3Ds-M2 (Q402R) = hM3Ds-M2 (Q402R) (Homo sapiens, UniProt P20309, A178S/A239G/A490L/DEL258-409/DEL413-482/I254V/INS485[…]/K179L/K183A/K256R/K487Q/L174F/L483Q/Q562R/R172S/R177Q/R180L/T175R/T182R/Y149C/Y255F); settings: CNO at 10 μM, compared to hM3Ds
# Experimental: as §3, §4
# hM3Ds-M5 (K406R) = hM3Ds-M5 (K406R) (Homo sapiens, UniProt P20309, A178S/A239G/A490L/DEL258-409/DEL413-482/I254V/INS485[…]/K179L/K183A/K256R/K487Q/K566R/L174F/L483Q/R172S/R177Q/R180L/T175R/T182R/Y149C/Y255F); settings: CNO at 10 μM, compared to hM3Ds
# Experimental: as §3, §4
# hM3Ds-M3 (D404G) = hM3Ds-M3 (D404G) (Homo sapiens, UniProt P20309, A178S/A239G/A490L/D564G/DEL258-409/DEL413-482/I254V/INS485[…]/K179L/K183A/K256R/K487Q/L174F/L483Q/R172S/R177Q/R180L/T175R/T182R/Y149C/Y255F); settings: CNO at 10 μM, compared to hM3Ds
# Experimental: as §3, §4
# hM3Ds-M4 (K405R) = hM3Ds-M4 (K405R) (Homo sapiens, UniProt P20309, A178S/A239G/A490L/DEL258-409/DEL413-482/I254V/INS485[…]/K179L/K183A/K256R/K487Q/K565R/L174F/L483Q/R172S/R177Q/R180L/T175R/T182R/Y149C/Y255F); settings: CNO at 10 μM, compared to hM3Ds
# Experimental: as §3, §4
# hM3Ds [4] = biological target: T1, hM3Ds
# Experimental: as §3, §4
# (§5) We next examined whether the chemogenetic receptor ligand, CNO, could stimulate hM3-ti23-Ds and hM3Ds and induce up-regulation of cAMP level. We co-transfected HEK293T cells with engineered receptors and the reporter vector, pCRE-Luc, which contains a cAMP response element-driven firefly luciferase (Luc) ([Bokar et al., 1988]); pRL-SV40 encoding renilla luciferase was simultaneously transfected as a transfection efficiency control.
# hM3-ti23-Ds = biological target: T2, hM3-ti23-Ds (Homo sapiens, UniProt P20309, A178S/A239G/A490L/D442R/DEL262-438/DEL444-462/DEL467-485/E259S/I254V/INS257[…]/K179L/K183A/K256R/K465M/K487H/L174F/L463M/R172S/R177Q/R180M/T175R/T182R/T258A/Y149C)
# T2 sequence (P20309 with tags, fused parts or gaps Y149C/R172S/L174F/T175R/R177Q/A178S/K179L/R180M/T182R/K183A/A239G/I254V/K256R/INS257[…]/T258A/E259S/DEL262-438/D442R/DEL444-462/L463M/K465M/DEL467-485/K487H/A490L): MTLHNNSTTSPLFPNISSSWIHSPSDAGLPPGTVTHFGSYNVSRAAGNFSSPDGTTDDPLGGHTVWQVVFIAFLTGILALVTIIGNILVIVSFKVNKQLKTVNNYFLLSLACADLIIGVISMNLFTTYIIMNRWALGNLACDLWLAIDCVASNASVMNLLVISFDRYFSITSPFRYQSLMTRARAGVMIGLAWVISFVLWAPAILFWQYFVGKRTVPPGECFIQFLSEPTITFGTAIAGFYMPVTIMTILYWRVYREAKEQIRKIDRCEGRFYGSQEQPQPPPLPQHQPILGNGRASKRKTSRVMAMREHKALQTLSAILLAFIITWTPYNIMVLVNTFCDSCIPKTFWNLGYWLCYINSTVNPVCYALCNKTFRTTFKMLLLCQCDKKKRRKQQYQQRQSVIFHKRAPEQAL
# Experimental: as §3, §4, §5
# rM3Ds = biological target: T3, rM3Ds (Rattus norvegicus, UniProt P08483, A177S/A238G/A489L/DEL261-437/DEL441-478/E258S/I253V/I483M/INS256[…]/K178L/K182A/K255R/K484R/K486H/L173F/L482A/M480V/R171S/R176Q/R179M/S481M/T174R/T181R/T257A/Y148C); test: cAMP assay (CRE-luciferase reporter) in HEK293T cells expressing rM3Ds; type: cell-based; settings: CNO on rM3Ds, HEK293T, 6 h, firefly/renilla luciferase ratio
# T3 construct: host or cells: HEK293T
# T3 sequence (P08483 with tags, fused parts or gaps Y148C/R171S/L173F/T174R/R176Q/A177S/K178L/R179M/T181R/K182A/A238G/I253V/K255R/INS256[…]/T257A/E258S/DEL261-437/DEL441-478/M480V/S481M/L482A/I483M/K484R/K486H/A489L): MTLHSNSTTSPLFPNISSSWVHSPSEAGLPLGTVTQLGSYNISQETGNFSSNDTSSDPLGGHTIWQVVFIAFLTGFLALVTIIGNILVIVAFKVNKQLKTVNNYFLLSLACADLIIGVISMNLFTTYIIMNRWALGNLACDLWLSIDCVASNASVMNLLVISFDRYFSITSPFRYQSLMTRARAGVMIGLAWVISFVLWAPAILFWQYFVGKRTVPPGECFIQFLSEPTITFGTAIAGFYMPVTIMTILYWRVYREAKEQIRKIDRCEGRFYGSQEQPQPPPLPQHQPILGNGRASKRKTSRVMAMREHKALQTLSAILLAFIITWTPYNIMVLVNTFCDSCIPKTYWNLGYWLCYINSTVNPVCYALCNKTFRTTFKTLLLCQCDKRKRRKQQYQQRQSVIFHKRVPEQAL
# mice = test: Open field test after unilateral AAV8R12-G88P7-hM3Ds-2A-EYFP injection into the SNr; type: in vivo, mouse; settings: CNO 0.3 mg/kg intraperitoneal vs saline, unilateral hM3Ds in D1-MSNs
# Experimental: as §1
# Mice were tested in an open field box arena with length, width and height of 50 × 50 × 50 cm. The animals underwent 3 days of habituation to the environment and experimenter and 1 day of habituation to the test apparatus. On the test day, the animals were injected with saline or CNO (0.3 mg/kg). The animals were placed into the test box 30 min after injection and video was recorded for 10 min. The number of rotations, distance traveled, and time spent immobile were then quantified using Anymaze software and the video recordings.
# Sequence of hM3Ds-M2 (Q402R) (P20309 with tags, fused parts or gaps with the stated changes): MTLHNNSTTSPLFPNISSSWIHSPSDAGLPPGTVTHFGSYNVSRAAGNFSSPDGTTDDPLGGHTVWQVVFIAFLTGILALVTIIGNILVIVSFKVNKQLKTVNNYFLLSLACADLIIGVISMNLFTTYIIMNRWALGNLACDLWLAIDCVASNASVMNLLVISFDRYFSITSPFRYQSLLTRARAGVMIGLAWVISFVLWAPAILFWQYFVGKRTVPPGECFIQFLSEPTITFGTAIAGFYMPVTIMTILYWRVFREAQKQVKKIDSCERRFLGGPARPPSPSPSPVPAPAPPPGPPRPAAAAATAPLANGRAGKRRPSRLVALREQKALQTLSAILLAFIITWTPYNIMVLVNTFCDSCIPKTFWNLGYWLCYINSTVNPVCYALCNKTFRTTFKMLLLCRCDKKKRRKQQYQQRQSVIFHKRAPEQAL
# Sequence of hM3Ds-M3 (D404G) (P20309 with tags, fused parts or gaps with the stated changes): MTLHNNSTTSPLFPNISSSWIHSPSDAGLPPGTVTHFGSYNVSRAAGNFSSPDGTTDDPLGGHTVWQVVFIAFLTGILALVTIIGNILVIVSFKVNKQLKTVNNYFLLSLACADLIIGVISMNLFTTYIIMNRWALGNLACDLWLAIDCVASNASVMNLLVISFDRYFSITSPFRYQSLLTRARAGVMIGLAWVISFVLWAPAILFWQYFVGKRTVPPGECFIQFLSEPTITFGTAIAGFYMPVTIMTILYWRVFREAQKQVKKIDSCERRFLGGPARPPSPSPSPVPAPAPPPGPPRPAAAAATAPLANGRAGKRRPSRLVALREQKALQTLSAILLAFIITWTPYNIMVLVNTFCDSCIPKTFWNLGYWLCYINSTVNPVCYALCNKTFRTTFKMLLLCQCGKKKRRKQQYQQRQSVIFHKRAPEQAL
# Sequence of hM3Ds-M5 (K406R) (P20309 with tags, fused parts or gaps with the stated changes): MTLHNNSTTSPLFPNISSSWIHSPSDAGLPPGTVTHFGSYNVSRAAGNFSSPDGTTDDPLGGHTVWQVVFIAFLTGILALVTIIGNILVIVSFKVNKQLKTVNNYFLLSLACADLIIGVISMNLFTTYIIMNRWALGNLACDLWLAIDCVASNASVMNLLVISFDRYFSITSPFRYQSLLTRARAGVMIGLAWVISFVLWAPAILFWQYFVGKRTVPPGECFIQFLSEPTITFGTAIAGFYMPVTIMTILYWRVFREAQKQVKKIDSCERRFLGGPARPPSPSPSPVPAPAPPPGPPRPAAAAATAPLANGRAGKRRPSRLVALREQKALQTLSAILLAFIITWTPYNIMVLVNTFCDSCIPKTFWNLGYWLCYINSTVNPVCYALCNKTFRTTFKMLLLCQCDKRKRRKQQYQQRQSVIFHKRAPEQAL
# Sequence of hM3Ds-M4 (K405R) (P20309 with tags, fused parts or gaps with the stated changes): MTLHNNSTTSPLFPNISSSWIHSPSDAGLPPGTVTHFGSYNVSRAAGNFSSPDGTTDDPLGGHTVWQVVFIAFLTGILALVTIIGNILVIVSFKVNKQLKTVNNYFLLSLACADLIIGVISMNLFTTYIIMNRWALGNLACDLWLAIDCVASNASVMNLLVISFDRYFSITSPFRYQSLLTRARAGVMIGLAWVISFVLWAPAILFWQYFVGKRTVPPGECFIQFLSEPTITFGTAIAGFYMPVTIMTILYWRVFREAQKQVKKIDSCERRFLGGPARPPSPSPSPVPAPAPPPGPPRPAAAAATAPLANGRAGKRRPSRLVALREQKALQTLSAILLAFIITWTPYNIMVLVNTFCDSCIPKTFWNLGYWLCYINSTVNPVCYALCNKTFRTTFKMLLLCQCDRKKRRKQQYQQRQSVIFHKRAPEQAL
# Sequence of hM3Ds-M6 (K407R) (P20309 with tags, fused parts or gaps with the stated changes): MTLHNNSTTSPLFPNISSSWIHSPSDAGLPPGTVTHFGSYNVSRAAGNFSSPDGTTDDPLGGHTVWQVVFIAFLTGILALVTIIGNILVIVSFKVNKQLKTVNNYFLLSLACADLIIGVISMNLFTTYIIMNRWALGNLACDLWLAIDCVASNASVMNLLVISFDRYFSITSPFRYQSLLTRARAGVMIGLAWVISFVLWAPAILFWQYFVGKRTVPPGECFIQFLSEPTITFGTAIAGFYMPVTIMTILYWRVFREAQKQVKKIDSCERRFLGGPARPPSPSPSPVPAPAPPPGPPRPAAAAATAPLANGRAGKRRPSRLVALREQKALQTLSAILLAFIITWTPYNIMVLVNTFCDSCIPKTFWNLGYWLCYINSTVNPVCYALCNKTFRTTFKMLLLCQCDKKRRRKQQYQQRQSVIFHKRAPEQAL
smiles,measurement,setting,value
"C[N+]1([O-])CCN(C2=Nc3cc(Cl)ccc3Nc3ccccc32)CC1 [CNO, clozapine N-oxide]",latency to fall (rotarod),PD mice [1],partial recovery of motor skills
same,calcium rise,hM3Ds [2],did not induce detectable levels of calcium rise
same,mean distance traveled,PD mice [3],reversed
same,time spent immobile,PD mice [3],reversed
same,fold change in luciferase activity,hM3Ds-M6 (K407R),reduced luciferase activity compared to hM3Ds
same,fold change in luciferase activity,hM3Ds-M2 (Q402R),reduced luciferase activity compared to hM3Ds
same,fold change in luciferase activity,hM3Ds-M5 (K406R),reduced luciferase activity compared to hM3Ds
same,fold change in luciferase activity,hM3Ds-M3 (D404G),reduced luciferase activity compared to hM3Ds
same,fold change in luciferase activity,hM3Ds-M4 (K405R),reduced luciferase activity compared to hM3Ds
same,fold change in luciferase activity,"hM3Ds [4]; CNO at 10 μM, hM3Ds, compared to rM3Ds",comparable fold change
same,EC50,"hM3Ds [4]; CNO on hM3Ds, HEK293T, 6 h, firefly/renilla luciferase ratio",1.26 ± 0.2 nM
same,cAMP response,"hM3Ds [4]; hM3Ds, HEK293T",dose-dependently increased the cAMP response
same,fold change in luciferase activity,"hM3-ti23-Ds; CNO at 10 μM, compared to rM3Ds and hM3Ds",lower fold change
same,cAMP response,hM3-ti23-Ds; HEK293T,dose-dependently increased the cAMP response
same,EC50,rM3Ds,2.39 ± 0.25 nM
same,contralateral rotation,mice,more contralateral rotation
same,total distance traveled,mice,no difference
